Assay results from patent publication EP2140864A2 (H. Lundbeck A/S, priority 2001, dated 2002).
Where two headings read alike, the source gives them in different places.

Molecular target: T1, human GAL3 receptor (Homo sapiens, UniProt O60755)
T1 construct: expressed in transfected cells
T1 sequence (O60755 1-368): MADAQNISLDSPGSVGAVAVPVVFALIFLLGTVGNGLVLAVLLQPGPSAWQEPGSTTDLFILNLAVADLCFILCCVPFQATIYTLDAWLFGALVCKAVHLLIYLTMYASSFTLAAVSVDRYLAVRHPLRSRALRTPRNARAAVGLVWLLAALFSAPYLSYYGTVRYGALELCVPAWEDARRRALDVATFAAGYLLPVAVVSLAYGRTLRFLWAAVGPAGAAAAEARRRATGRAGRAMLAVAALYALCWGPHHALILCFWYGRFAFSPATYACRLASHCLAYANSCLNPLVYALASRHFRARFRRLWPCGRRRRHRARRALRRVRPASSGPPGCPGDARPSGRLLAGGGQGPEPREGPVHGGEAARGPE
Test: Radioligand binding at cloned human GAL3 receptor
Conditions: cloned human receptor, read-out: Ki GalR3
In short: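 Membranes from LM(tk-) cells stably expressing human GAL3, prepared in binding buffer (HEPES-based, pH 7.4), used for radioligand binding. Solvent at final assay concentration: 3% DMSO for indolones, 1% ethanol/0.09% pluronic F-127 for pyrimidines. Binding data analysed by nonlinear regression.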

| SMILES | Ki (pyrimidines) [µM] | Ki (indolones) [µM] |
| --- | --- | --- |
| CN(C)c1cc(Nc2cccc(Cc3ccccc3)c2)nc(N2CCN(c3ccccn3)CC2)n1 [Example 216] | 0.05 |  |
| COc1ccc(OC)c(Nc2cc(N(C)C)nc(N3CCN(c4ccccn4)CC3)n2)c1 [Example 201] | 0.566 |  |
| O=C1/C(=N\c2cc(Cl)cc(Cl)c2)c2ccccc2N1Cc1cccnc1 [Example 279] |  | 0.081 |
| CN(C)c1cc(NC2CCCCCC2)nc(N2CCN(Cc3ccccc3)CC2)n1 [Example 128] | 0.249 |  |
| COc1ccccc1CCNc1nc(Nc2ccc(C)cc2)cc(N(C)C)n1 [Example 150] | 0.18 |  |
| CN(C)c1cc(Nc2ccc(Br)cc2Cl)nc(N2CCN(c3ccccn3)CC2)n1 [Example 217] | 0.19 |  |
| N#Cc1cccc(/N=C2\C(=O)N(c3ccccc3)c3ccccc32)c1 [Example 288, 3-{[(3Z)-2-OXO-1-PHENYL-1,2-DIHYDRO-3H-INDOL-3-YLIDENE]AMINO}BENZONITRILE] |  | 0.039 |
| COc1ccc2c(c1)N(c1ccccc1)C(=O)/C2=N\c1cccc(Cl)c1 [Example 302, (3Z)-3-[(3-CHLOROPHENYL)IMINO]-6-METHOXY-1-PHENYL-1,3-DIHYDRO-2H-INDOL-2-ONE] |  | 0.15 |
| Cc1ccc(Nc2cc(N(C)C)nc(N3CCN(S(=O)(=O)c4ccc(C)cc4)CC3)n2)cc1 [Example 84] | 0.261 |  |
| CN(C)c1cc(Nc2cccc(OCc3ccccc3)c2)nc(N2CCN(Cc3ccccc3)CC2)n1 [Example 228] | 0.032 |  |
| COc1cccc(Nc2cc(N(C)C)nc(N3CCN(Cc4ccncc4)CC3)n2)c1 [Example 147] | 0.64 |  |
| Cc1ccc(C)c(Nc2cc(N(C)C)nc(N3CCN(c4ccccn4)CC3)n2)c1 [Example 213] | 0.165 |  |
| Cc1noc(C)c1CN1C(=O)/C(=N\c2ccc(Cl)c(Cl)c2)c2ccccc21 [Example 255] |  | 0.049 |
| Cc1ccc(Nc2cc(N3CCCCC3)nc(Nc3ccccc3)n2)cc1 [Example 3] | 0.163 |  |
| CN(C)c1cc(NC2CCCCCCC2)nc(N2CCN(Cc3ccccc3)CC2)n1 [Example 170] | 0.091 |  |
| O=C1/C(=N\c2cccc(C(F)(F)F)c2)c2ccccc2N1Cc1cccnc1 [Example 277] |  | 0.198 |
| CCCc1ccc(Nc2cc(N(C)C)nc(N3CCN(c4ccccn4)CC3)n2)cc1 [Example 209] | 0.205 |  |
| COc1ccc(C(F)(F)F)cc1Nc1cc(N(C)C)nc(N2CCN(Cc3ccccc3)CC2)n1 [Example 226] | 0.072 |  |
| CN(C)c1cc(Nc2cccc(F)c2)nc(N2CCN(c3ccccn3)CC2)n1 [Example 206] | 0.454 |  |
| CC1CCC(Nc2cc(N(C)C)nc(N3CCN(Cc4ccccc4)CC3)n2)CC1 (stereo not shown) [Example 157] | 0.273 |  |
| Cc1ccc(Nc2cc(N(C)C)nc(N(C)CCc3ccccn3)n2)cc1 [Example 161] | 0.114 |  |
| COc1cccc(Nc2cc(N(C)C)nc(N3CCN(c4ccc(Br)cn4)CC3)n2)c1 [Example 143] | 0.144 |  |
| Cc1cc(N=C2C(=O)N(c3ccsc3)c3ccccc32)ccc1Cl [Example 290] |  | 0.055 |

| SMILES | Ki (pyrimidines) [µM] | Ki (indolones) [µM] |
| --- | --- | --- |
| Cc1ccc(Nc2cc(N(C)C)nc(N3CCN(c4cccc(OCc5ccccc5)c4)CC3)n2)cc1 [Example 131] | 0.02 |  |
| Cc1cc(Nc2cc(N(C)C)nc(N3CCN(c4ccccn4)CC3)n2)ccc1F [Example 200] | 0.311 |  |
| COc1cccc(CN2CCN(c3nc(Nc4ccc(C)cc4)cc(N(C)C)n3)CC2)c1 [Example 142] | 0.028 |  |
| N#CCc1ccc(/N=C2\C(=O)N(c3ccccc3)c3ccccc32)cc1 [Example 297, (4-{[(3Z)-2-OXO-1-PHENYL-1,2-DIHYDRO-3H-INDOL-3-YLIDENE]AMINO}PHENYL)ACETONITRILE] |  | 0.226 |
| CN(C)c1cc(Nc2ccc3c(c2)OCO3)nc(N2CCN(c3ccccn3)CC2)n1 [Example 118] | 0.508 |  |
| CN(C)c1cc(Nc2ccc(Cl)c(Cl)c2Cl)nc(N2CCN(Cc3ccccc3)CC2)n1 [Example 230] | 0.052 |  |
| O=C1/C(=N\c2cccc(Cl)c2)c2ccccc2N1c1ccsc1 [Example 270, (3Z)-3-[(3-CHLOROPHENYL)IMINO]-1-(3-THIENYL)-1,3-DIHYDRO-2H-INDOL-2-ONE] |  | 0.042 |
| CN(C)c1cc(Nc2ccc(SC(F)(F)F)c(Cl)c2)nc(N2CCN(c3ccccn3)CC2)n1 [Example 134] | 0.025 |  |
| CN(C)c1cc(Nc2cc(F)c(F)cc2F)nc(N2CCN(c3ccccn3)CC2)n1 [Example 219] | 0.558 |  |
| COc1ccc2c(c1)N(c1ccccc1)C(=O)/C2=N\c1cccc(C(F)(F)F)c1 [Example 303, (3Z)-6-METHOXY-1-PHENYL-3-{[3-(TRIFLUOROMETHYL)PHENYL]IMINO}-1,3-DIHYDRO-2H-INDOL-2-ONE] |  | 0.214 |
| Cc1ccc(Nc2cc(N3CCC(=O)CC3)nc(N3CCN(Cc4ccccc4)CC3)n2)cc1 [Example 184] | 0.163 |  |
| CN(C)c1cc(Nc2ccc3c(c2)OCCO3)nc(N2CCN(c3ccccn3)CC2)n1 [Example 119] | 0.54 |  |
| COc1ccc(CN2CCN(c3nc(Nc4ccc(C)cc4)cc(N(C)C)n3)CC2)cc1 [Example 235] | 0.114 |  |
| Cc1ccc(Nc2cc(N(C)C)nc(N3CCN(c4cnccn4)CC3)n2)cc1C [Example 183] | 0.066 |  |
| Cc1cccc(/N=C2\C(=O)N(c3ccsc3)c3ccccc32)c1 [Example 271] |  | 0.114 |
| O=C1/C(=N\c2ccc(Cl)nc2)c2ccccc2N1c1ccsc1 [Example 267] |  | 0.234 |
| CCOc1cccc(Nc2cc(N(C)C)nc(N3CCN(c4ccccn4)CC3)n2)c1 [Example 135] | 0.1 |  |
| O=C1C(=Nc2ccc(Cl)cc2)c2ccccc2N1c1ccsc1 [Example 292, (3Z)-3-[(4-CHLOROPHENTYL)IMINO]-1-(3-THIENYL)-1,3-DIHYDRO-2H-INDOL-2-ONE] |  | 0.034 |
| O=C1/C(=N\c2cccc(Br)c2)c2ccccc2N1c1ccccc1 [Example 307, (3Z)-3-[(3-BROMOPHENYL)IMINO]-1-PHENYL-1,3-DIHYDRO-2H-INDOL-2-ONE] |  | 0.041 |
| Cc1ccc(Nc2cc(N(C)C)nc(N3CCN(Cc4cccs4)CC3)n2)cc1 [Example 174] | 0.325 |  |
| COc1cccc(Nc2cc(N(C)C)nc(N3CCN(Cc4cccs4)CC3)n2)c1 [Example 165] | 0.139 |  |
| COc1cc(Nc2cc(N(C)C)nc(N3CCN(c4ccccn4)CC3)n2)cc(C(F)(F)F)c1 [Example 197] | 0.666 |  |
| C[C@H]1[C@H](Nc2cc(N(C)C)nc(N3CCN(Cc4ccccc4)CC3)n2)C[C@@H]2C[C@@H]1C2(C)C [Example 139] | 0.047 |  |

| SMILES | Ki (pyrimidines) [µM] | Ki (indolones) [µM] |
| --- | --- | --- |
| CCn1c2ccccc2c2cc(/N=C3\C(=O)N(c4ccccc4)c4ccccc43)ccc21 [Example 281, (3Z)-3-[(9-ETHYL-9H-CARBAZOL-3-YL)IMINO]-1-PHENYL-1,3-DIHYDRO-2H-INDOL-2-ONE] |  | 0.15 |
| CN(C)c1cc(Nc2cccc(C(F)(F)F)c2)nc(N2CCN(c3ccccn3)CC2)n1 [Example 125] | 0.075 |  |
| CN(C)c1cc(NC2CCCCC2)nc(Nc2ccccc2)n1 [Example 66] | 0.699 |  |
| CN(C)c1cc(Nc2cccc(F)c2)nc(N2CCN(Cc3ccccc3)CC2)n1 [Example 164] | 0.06 |  |
| CN(C)c1cc(Nc2cccc(Br)c2)nc(N2CCN(c3ccccn3)CC2)n1 [Example 243] | 0.046 |  |
| O=C1/C(=N\c2ccc(Cl)c(Cl)c2)c2ccccc2N1c1cccc(C(F)(F)F)c1 [Example 256, (3Z)-3-[(3,4-DICHLOROPHENYL)IMINO]-1-[3-(TRIFLUOROMETHYL)PHENYL]-1,3-DIHYDRO-2H-INDOL-2-ONE] |  | 0.018 |
| Cc1ccc(Nc2cc(N(C)C)nc(N3CCN(c4ccccn4)CC3)n2)cc1Br [Example 240] | 0.077 |  |
| Cc1ccc(Nc2cc(N(C)C)nc(N3CCN(c4ccc(C(N)=O)cn4)CC3)n2)cc1 [Example 141, 6-{4-[4-(DIMETHYLAMINO)-6-(4-TOLUDINO)-2-PYRIMIDINYL] -1-PIPERAZINYL}NICOTINAMIDE] | 0.509 |  |
| CN(C)c1cc(Nc2ccccc2C(C)(C)C)nc(N2CCN(c3ccccn3)CC2)n1 [Example 212] | 0.231 |  |
| CN(C)c1cc(Nc2cc(F)c(F)c(F)c2)nc(N2CCN(c3ccccn3)CC2)n1 [Example 221] | 0.213 |  |
| COc1cccc(Nc2cc(N(C)C)nc(N3CCN(Cc4ccccn4)CC3)n2)c1 [Example 144] | 0.529 |  |
| Cc1ccc(Nc2cc(N(C)C)nc(N3CCN(Cc4ccsc4)CC3)n2)cc1 [Example 238] | 0.331 |  |
| CN(C)c1cc(Nc2ccc(C3CCCCC3)cc2)nc(N2CCN(c3cnccn3)CC2)n1 [Example 178] | 0.026 |  |
| Cc1ccc(Nc2cc(N3CCCCC3)nc(N3CCN(c4cccc(C(F)(F)F)n4)CC3)n2)cc1 [Example 33] | 0.181 |  |
| CC(C)c1cccc(/N=C2\C(=O)N(c3ccsc3)c3ccccc32)c1 [Example 295, (3Z)-3-[(3-ISOPROPYLPHENYL)IMINO]-1-(3-THIENYL)-1,3-DIHYDRO-2H-INDOL-2-ONE] |  | 0.242 |
| CN(C)c1ccc(Nc2cc(N(C)C)nc(N3CCN(Cc4ccccc4)CC3)n2)cc1 [Example 158] | 0.941 |  |
| COc1cc(Nc2cc(N(C)C)nc(N3CCN(Cc4ccccc4)CC3)n2)cc(C(F)(F)F)c1 [Example 225] | 0.066 |  |
| COc1cccc(Nc2cc(N(C)C)nc(N3CCN(C4CCCCC4)CC3)n2)c1 [Example 163] | 0.5 |  |
| CN(C)c1cc(Nc2cccc3c2CCCC3)nc(N2CCN(c3ccccn3)CC2)n1 [Example 122] | 0.065 |  |
| O=C1/C(=N\c2ccc(I)cc2)c2ccccc2N1c1ccccc1 [Example 283, (3Z)-3-[(4-IODOPHENYL)IMINO]-1-PHENYL-1,3-DIHYDRO-2H-INDOL-2-ONE] |  | 0.033 |
| Cc1ccc(Nc2cc(N(C)C)nc(N3CCN(Cc4ccco4)CC3)n2)cc1 [Example 231] | 0.136 |  |
